Results taken from PubChem BioAssay (NCI).
Where “and” joins values, the source holds several entries; their conditions need not be identical. Equal values may be shown once.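 Tested at 5 concentrations; 48 h exposure; 96-well plates; endpoints linearly interpolated, else capped at highest concentration. Here, GI50 denotes the concentration required for 50% inhibition of growth. The concentration for full growth arrest is given as TGI.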

Key:
Experiment in all cases: NCI tumour cell line growth inhibition, 48 h
ACHN renal = test system: ACHN renal
NCI-H460 lung = test system: NCI-H460 lung
786-0 renal = test system: 786-0 renal
M14 melanoma = test system: M14 melanoma
HCC-2998 colon = test system: HCC-2998 colon
SK-OV-3 ovarian = test system: SK-OV-3 ovarian
SF-295 CNS = test system: SF-295 CNS
KM12 colon = test system: KM12 colon
MOLT-4 leukemia = test system: MOLT-4 leukemia
MALME-3M melanoma = test system: MALME-3M melanoma

Q: What does the source list for `COc1cc2ncnc(Nc3ccc(F)c(Cl)c3)c2cc1NC(=O)/C=C/CN1CCCCC1`?
A: GI50 (ACHN renal): < 0.01 µM and 0.00256 µM; TGI (ACHN renal): 1.76 µM and 1.48 µM; GI50 (NCI-H460 lung): 2.18 µM and 2.4 µM; TGI (NCI-H460 lung): 6.22 µM and 7 µM; GI50 (786-0 renal): 1.5 µM and 1.29 µM; TGI (786-0 renal): 2.98 µM and 2.75 µM; GI50 (M14 melanoma): 1.72 µM and 1.61 µM; TGI (M14 melanoma): 3.4 µM and 3.26 µM; GI50 (HCC-2998 colon): 1.97 µM and 1.75 µM; TGI (HCC-2998 colon): 4.38 µM and 4.29 µM; GI50 (SK-OV-3 ovarian): 0.0171 µM and 0.00478 µM; TGI (SK-OV-3 ovarian): 2.3 µM and 2.23 µM; GI50 (SF-295 CNS): 1.78 µM and 2.44 µM; TGI (SF-295 CNS): 4.03 µM and > 7.08 µM; GI50 (KM12 colon): 2.17 µM and 2.78 µM; TGI (KM12 colon): 4.88 µM and > 9.06 µM; GI50 (MOLT-4 leukemia): 1.41 µM and 1.59 µM; TGI (MOLT-4 leukemia): 4.97 µM and 7.26 µM; GI50 (MALME-3M melanoma): 1.73 µM and 1.61 µM; TGI (MALME-3M melanoma): 3.31 µM and 3.09 µM
